From patent publication US12486214B2, “Rosmarinic acid derivative, Rosmarinic acid-derived particles, composition containing same for treating inflammatory disease” (KOREA ADVANCED INSTITUTE OF SCIENCE AND TECHNOLOGY, priority 2020, dated 2025)
Where two headings read alike, the source gives them in different places.

Key:
[1] = test system: inflammatory bowel disease model mice; assay: Effect of oral HA-RANPs (and HA, RA, 5-ASA) on inflammatory bowel disease model mice (3% DSS); format: in vivo; details: 5 times: HA-RANPs 100 mg/kg, HA 85 mg/kg, RA 15 mg/kg, 5-ASA 100 mg/kg
Experimental: To investigate the antiinflammatory therapeutic efficacy of HA-RANPs in inflammatory bowel disease model mice, the present inventors performed the following tests. By using the inflammatory bowel disease model in which 3% DSS and drinking water were administered to mice (C57BL/6, 6 weeks old, female, 7-day acclimatization) for 5 days, three dose concentrations (20, 50, and 100 mg/kg) of HA-RANPs were orally administered for 5 days (D+1 to D+5, one time/day) for a total of 5 times. The degree of disease progression and the antiinflammatory effect of HA-RANPs were examined through weight changes (measured daily) of all groups of mice and the extraction and tests of the large intestine on the last day.
In addition, the myeloperoxidase (MPO) activity and inflammatory cytokine expression were examined through ELISA assay. Specifically, the same portion of each mouse colon sample was cut, pre-treated, and minced, and then a predetermined amount thereof was centrifuged to obtain a supernatant, and thereafter, the supernatant was subjected to the following assay. The MPO activity is an index to evaluate the infiltration of neutrophils into the inflamed tissue. The measurement of MPO activity is disclosed in Grisham et al. (1990) or the like.
The change in extent of inflammation in the colon was investigated by histopathological examination, that is, examining the degrees of structural integrity loss, crypt destruction, and mucosal surface changes.
The present inventors evaluated the effect of the HA-RANPs of the present disclosure on inflammatory bowel disease model mice through the comparison with HA and RA. The inflammatory bowel disease model was induced by the same method as in the above-described experiment, wherein 100 mg/kg of HA-RANPs as a drug and the equal amounts of Free HA (85 mg/kg), RA (15 mg/kg), and 5-amino salicylic acid (5-ASA) (100 mg/kg) as positive drug controls were administered orally (a total of 5 times, one time/day, D+1 to D+5).

[2] = in vivo; cited from earlier work
[3] = Particle size, zeta potential and morphology (DLS/PCS, TEM); format: physicochemical
Experimental: PEG-RA (20 mg) was dissolved in 4 mL of a 1:3 mixture (v/v) of chloroform:methanol and mixed for several minutes. The organic solvent was then removed by rotary vacuum evaporation and was further dried under a nitrogen flow for 30 minutes to yield a film layer. The film layer was suspended in 1 mL of PBS (137 mM NaCl, 2.7 mM KCl, 10 mM Na2HPO4, 2 mM KH2PO4, pH 7.4) and the resulting micelle suspension was sonicated in a bath sonicator (50 W, 40 kHz) for 10 minutes to yield uniform-sized RANPs. The micelle solution was maintained at 4° C., and directly used in the experiments below. The particle size of RANPs was analyzed by photon correlation spectroscopy (PCS) using a Nanosizer ZS90 (Malvern Instrument Ltd., Malvern, UK) equipped with 4.0 mW HeNe laser and an avalanche photodiode detector operating at 633 nm. Zeta potential was also measured at 25° C. in aqueous solutions (pH 7) by using the same equipment. The morphological characteristics of RANPs were examined using negative-staining transmission electron microscopy (TEM). Briefly, a drop of the diluted sample was placed on copper grids coated with a carbon film, stained with 0.5% w/v uranyl acetate solution, and dried at room temperature. The grids were imaged using a Tecnai F20 (FEI Co., Hillsboro, OR, USA) transmission electron microscope. […]
The hydrodynamic size and zeta potential of RANPs in phosphate buffer solution (pH 7.4), measured by dynamic light scattering (DLS), were 67.5±3.5 nm and −33.70 mV, respectively, indicating the exposure of the PEG layer on the surface of nanoparticles (FIG. 1C and Table 1).
The product was then analyzed through UV-Vis spectrometry using Beckman Coulter DU-800 UV-Vis spectrometer. The particle size of the HA-RA nanoparticles was obtained by measuring the hydrodynamic size of HA-RA nanoparticles in phosphate buffer solution (pH 7.4), measured by dynamic light scattering (DLS). […]
The LMWC-RA of the present disclosure was prepared into nanoparticles by the method shown in Example 8, and then the hydrodynamic size and zeta potential value thereof were measured.

[4] = Solubility in distilled water or DMSO; format: physicochemical
[5] = free RA, rats, intravenous 0.625 mg/kg; cited from earlier work

SMILES	MPO activity and pro-inflammatory cytokine levels [1]	body weight loss and colon length shortening on day 10 [1]	colon histopathology (H&E stained biopsy) [1]	expression of tight junction-related genes ZO-1, claudin-1, and occludin in colon [1]	time within which RA is usually excreted from the body [2]	Conductivity [3]	Mobility [3]	Zeta potential [3]	solubility ([4]; DMSO, organic solvent or mixture, read-out: solubility in DMSO)	dissolution in distilled water ([4]; at 5 mg/ml)	solubility ([4]; distilled water, water, read-out: solubility in distilled water)	area under the curve (AUC) [5]	circulation (or elimination) half-life (t1/2) [5]	mean residence time (MRT) [5]
O=C(/C=C/c1ccc(O)c(O)c1)O[C@H](Cc1ccc(O)c(O)c1)C(=O)O [Rosmarinic acid (RA), rosmarinic acid]	somewhat relieved	slight efficacy	slightly relieved	improved	≤ 30 min	24.10 mS/cm	−1.217 μm cm/Vs	−15.53 mV	≤ 25 mg/mL	only partially dissolved	≤ 0.041 mg/mL	4090 ng·h/mL	42.9 min	50.1 min
Nc1ccc(O)c(C(=O)O)c1 [5-ASA, 5-amino salicylic acid]	somewhat relieved	significantly low	slightly relieved	improved										
